Assay results published in publication PMC5673638 (Frontiers in Microbiology, 2017).
Where “and” joins values, the source holds several entries; their conditions need not be identical. Equal entries are not always repeated. Entries after “also recorded” stand apart in the source; their conditions may differ. Where two headings read alike, the source gives them in different places.

How the values were obtained:
[1] = system: H5N1 strain A/Mallard/Bavaria/1/2006; test: microbe, parasite or virus in culture; type: cell-based, influenza A virus; conditions: for EC50: read-out: EC50 (concentration required to reduce the virus titer to 50%)
[2] = mouse, in vivo
[3] = cited from earlier work
in vivo = conditions: mouse, po
[4] = system: H5N1 influenza virus A/Mallard/Bavaria/1/2006
[5] = system: highly pathogenic influenza virus; parameters: species or system C57BL/6 mice; conditions: mouse, in vivo
[6] = system: influenza virus strain (H5N1; MB1); conditions: mouse, in vivo
[7] = system: A/FPV/Bratislava/79 (H7N7) viral proteins M1, NP, NS1, PB1
[8] = system: influenza virus strain A/FPV/Bratislava/79 (H7N7); conditions: mouse
[9] = system: caspase activation (PARP cleavage)
[10] = system: vRNP complexes of H5N1 A/Thailand/KAN-1/2004
[11] = system: A/Regensburg/D6/2009 H1N1pdm09 strain

salicylate
Antiviral effect on virus titers over time [1]: No antiviral effect; also recorded: An antiviral effect was also found with ASA (gray triangles) and SA (open triangle) 24 h and 32 h post-infection which, however, was leveled-out at the 48 h time-point | EC50 [1]: 700 ± 40 µM | AUC and Cmax, plasma compared to lung homogenate [2]: about four-fold higher in plasma | Cmax, plasma compared to lung [2]: about three-fold higher in plasma than in lung | AUC in plasma, SA compared to ASA ([2]; iv): about 25 fold | AUCnorm ([2]; iv): 5.28 kg⋅h/L | Cmax in plasma, SA compared to ASA ([2]; iv): ~2.5 fold | AUC ([2]; po): 15.3 mg⋅h/L | Cmax ([2]; po): 12.5 µg/mL

CC(=O)Oc1ccccc1C(=O)O [ASA, Acetylsalicylic acid]
Antiviral effect on virus titers over time [1]: less potent compared to BAY 81-8781; also recorded: An antiviral effect was also found with ASA (gray triangles) and SA (open triangle) 24 h and 32 h post-infection which, however, was leveled-out at the 48 h time-point | EC50 ([1]; Influenza A virus, H5N1, A549, in Anas platyrhynchos): 170 ± 50 µM | Stability in plasma [3]: not stable in plasma | AUC and Cmax, plasma compared to lung homogenate [2]: about four-fold higher in plasma | AUC ([2]; iv): 0.0781 mg⋅h/L | Plasma clearance ([2]; iv): high | Terminal half-lives ([2]; iv): short | Volume of distribution at steady state ([2]; iv): moderate | AUC ([2]; po, 15 mg/kg): 0.0688 mg⋅h/L | t1/2 ([2]; po, 15 mg/kg): 4.54 min | bioavailability (in vivo): ~10% | bioavailability (in vivo; 15 mg/kg): 10.3% | half-life (in vivo; 15 mg/kg, t1/2): 8.64 min

D,L-lysine acetylsalicylate ⋅ glycine [BAY 81-8781]
Antiviral effect, compound present for 30 min or 1 h [4]: no antiviral effects were found | Antiviral effect, compound present for 2 h or 4 h [4]: a dose dependent antiviral effect was found | Virus titer reduction [4]: > 80% | Day of death (p.i.) [5]: 8.8 days p.i. and 8.8 ± 1.3 days p.i. | Delay of death of non-protected mice compared to solvent animals [5]: 2 days | Survival (survival/total) [5]: 4/8 | Weight loss and disease symptoms [5]: either showed no or only slight weight loss and marginal disease symptoms | Disease progression (symptom score) [6]: rather moderate | Mice protected from death [6]: 87.5% and 62.5% | Mice protected from death (protected/total) [6]: 5/8 | Weight loss [6]: only a moderate weight loss | TNFα induced activation of TRAIL mRNA (TRAIL mRNA expression): significantly reduced | Accumulation of viral proteins [7]: does not impact accumulation of viral proteins | EC50 in vivo (concentration of inhaled BAY 81-8781 solution) [8]: 1.56% and 1.5% | Reduction of lung virus titers, oral route ([8]; in vivo): no reduction of virus titers was found | Antiviral effect on virus titers over time [1]: strong and sustained reduction of virus titers at all time-points; also recorded: even stronger reduction of virus titers at all time-points | EC50 [1]: 160 ± 60 µM | Cleavage of caspase substrate PARP [9]: reduces the cleavage of the major caspase substrate PARP | Release of vRNPs from the nucleus [10]: strongly retained and accumulated in the nucleus | Reduction of virus propagation [11]: effective to reduce virus propagation
